Experiments:
[1] = tested on: colonic hypersensitivity; assay: Three rat models of colonic hypersensitivity, overall statement and conversion to human equivalent doses; settings: 0.25 mg/kg cetirizine, 0.6 mg/kg famotidine, two times per day p.o.
[2] = tested on: stress-induced visceral hypersensitivity; assay: Chronic water avoidance stress (WAS) model, visceromotor response to colorectal distension; settings: oral twice daily 3.5 days
[3] = tested on: rat colonic mucosa; assay: PGE2-induced short-circuit current across rat colonic mucosa; assay type: cell-based; settings: 6 μM famotidine, 3 μM cetirizine, each alone; FIG. 3
Excerpt: (§1) Data are presented as mean±standard error of mean (SEM). […] 2014 December; 63(12):1873-82).
(§2) These secretogogues were selected because PGE2 mediates the occurrence of watery diarrhea in response to a low-grade inflammatory insult and forakolin because it selectively activates all forms of cAMP-mediated intestinal secretion.

[4] = tested on: rat colonic mucosa; assay: Electrical field stimulation-induced short-circuit current across rat colonic mucosa in Ussing chambers; assay type: cell-based; settings: individually or combined; for effect on EFS-induced ΔISC: famotidine 10 μM, cetirizine 5 μM, EFS 16 Hz, FIG. 1; for inhibition of EFS-induced ΔISC: famotidine 200 μM, cetirizine 100 μM, FIG. 2
Excerpt: as §1

[5] = tested on: TNBS-induced, post-inflammatory colonic hypersensitivity; assay: TNBS-induced post-inflammatory colonic hypersensitivity model, VMR to CRD; settings: 0.25 mg/kg cetirizine, 0.6 mg/kg famotidine, each alone, oral twice daily 3.5 days; FIG. 8
[6] = tested on: rat colonic mucosa; assay: Forskolin-induced short-circuit current across rat colonic mucosa; assay type: cell-based; settings: 6 μM famotidine, 3 μM cetirizine, each alone; FIG. 4
Excerpt: as §1, §2

[7] = tested on: acetic acid-induced colonic hypersensitivity; settings: famotidine 0.6 mg/kg, cetirizine 0.25 mg/kg, each alone, oral twice daily 3.5 days; FIG. 7
[8] = famotidine 0.6 mg/kg, cetirizine 0.25 mg/kg, each alone, FIG. 6
[9] = lowest doses: famotidine 0.3 mg/kg, cetirizine 0.15 mg/kg, alone or in combination, FIG. 5

| Structure (SMILES) | inhibitory effect on colonic hypersensitivity in all three rat models [1] | effect on colonic hypersensitivity [2, 8] | effect on colonic hypersensitivity [2, 9] | effect on PGE2-induced changes in ISC [3] | effect on EFS-induced ΔISC [4] | inhibition of EFS-induced ΔISC [4] | effect on TNBS-induced colonic hypersensitivity [5] | effect on forskolin-induced changes in ISC [6] | inhibition of acetic acid-induced colonic hypersensitivity [7] |
| --- | --- | --- | --- | --- | --- | --- | --- | --- | --- |
| O=C(O)COCCN1CCN(C(c2ccccc2)c2ccc(Cl)cc2)CC1 (centres unmarked) [cetirizine] | did not result in sufficient inhibition | neither drug alone had an effect | had no effect on colonic hypersensitivity | neither drug alone was effective | had no effect | modest changes in ISC | Neither cetirizine alone nor famotidine alone exhibited any effect | only minimally effective | – |
| NC(N)=Nc1nc(CSCCC(N)=NS(N)(=O)=O)cs1 [famotidine] | did not result in sufficient inhibition | neither drug alone had an effect | had no effect on colonic hypersensitivity | neither drug alone was effective | had no effect | modest changes in ISC | Neither cetirizine alone nor famotidine alone exhibited any effect | only minimally effective | not either drug alone, induced a significant inhibition |

— patent US11419868B2, “Low dose product and method for treating diarrhea” (MAREGADE RX, LLC, priority 2016, dated 2022)
